Test results published in patent US20170290820A1, “METHODS AND COMPOSITIONS FOR TREATING BETA-THALASSEMIA AND SICKLE CELL DISEASE” (Academia Sinica, priority 2013, published 2017).

Tests used:
γ globin = test: absolute quantitative RT-PCR, proportion of γ globin mRNA; assay type: cell-based; conditions: primary human erythroid cells, at IC50, 3 days; mock 7.9%
Procedure: (§1) After 3 days of drug-treatment, the total RNA was extracted by RNA Spin mini kit (Ge-Healthcare) and reverse-transcription was performed by using superscript II (Invitrogen) followed the manufactors instruction. Quantitative PCR was performed on LightCycler with using STBR green master mix followed the manufactors instruction (Roche). The absolute quantitative RT-PCR was calculated by the standard curve with supplying a known copy number of plasmids. The relative quantitative RT-PCR was normalized to the expression levels of the β-actin and compared to the mock control.
(§2) To evaluate the specificity of S51021, SS-2394, HU, and NaB in mediating globin genes activation, the amounts of individual P3-liked globin mRNAs were measured by absolute quantitative RT-PCR.
(§3) The primary human erythroid cells were treated with HU (145.9 μM), NaB (221.6 μM), S51021 (21.8 μM) or SS2394 (2.3 μM) for 3 days, and the expression levels of each globin mRNA were estimated by absolute quantitative RT-PCR analysis. The proportions of individual 3-like globin chains among the total 3-like globin mRNA are shown. Data are presented as the mean±SEM, N=3.

NF-E4 = NF-E4 mRNA level by relative quantitative RT-PCR; assay type: cell-based, human; conditions: FIG. 4A; at IC50, 3 days, relative to mock
Procedure: FIGS. 4A-4D are graphs showing the expression profiles of the γ globin gene and HbF-related regulators after compounds treatment in the primary human erthroid cells. […] Data are presented as the relative expression level in mean±SEM, N=8. […] Upper panel: For detection of the induction level of γ globin, fifty microgram of total cell lysate was analyzed by western blot analysis using antibody against γ globin, or β-actin. Lower panel: The signal intensity was quantified by an image-analyzing software. The intensity of γ globin expression levels of mock control was set as 1. Data are shown as the mean±SEM, N=5. […] Lower panel: The signal was quantified by an image-analyzing software. […] Total RNA was extracted, and the expression level of γ globin gene was analyzed by relative quantitative RT-PCR. […]
as §1, with “control. […]” for “control.”

ε globin = test: absolute quantitative RT-PCR, proportion of ε globin mRNA; assay type: cell-based; conditions: primary human erythroid cells, at IC50, 3 days; mock 0.0%
Procedure: as §1, §2, §3

β globin = test: absolute quantitative RT-PCR, proportion of β globin mRNA; assay type: cell-based; conditions: primary human erythroid cells, at IC50, 3 days; mock 88.8%
Procedure: as §1, §2, §3

p38 = p38 phosphorylation by western blot; assay type: cell-based, human; conditions: FIG. 5; western blot p-p38/p38, at IC50
Procedure: FIG. 5 is a graph showing the phosphorylation status of p38 in primary erythroid cells treating with HU, NaB, S51021, or SS-2394. Upper panel: For detection of the phosphorylation status of p38, twenty microgram of total cell lysate extracted from the primary human erythroid cells treated with HU (145.9 μM), NaB (221.6 μM), S51021 (21.8 μM) or SS-2394 (2.3 μM) was analyzed by Western blot analysis using antibody against p-p38 or p38. Lower panel: The signal intensity was quantified by an image-analyzing software. The intensity of p-p38 levels of mock control cells was set as 1. Data are shown as the mean±SEM, N=5.
After 3 days of compound treatment, total protein or histone of the drug-treated cells was extracted. Histone was extracted by histone extraction buffer (10 mM HEPES, 1.5 mM MgCl2, 10 mM KCl, 0.5 mM DTT, 1.5 mM PMSF and 0.2 N HCl) at 4° C. overnight then centrifuged at 13,000 rpm for 5 minutes and collected the supernatant. Thirty microgram of histone extracts were separated in 15% SDS-PAGE and blotted onto PVDF membrane. After blocking with 5% non-fat milk in TBST, the membrane was then incubated with primary antibody against total histone H4 or total acetyl histone H4 at 4° C. overnight. […]

δ globin = test: absolute quantitative RT-PCR, proportion of δ globin mRNA; assay type: cell-based; conditions: primary human erythroid cells, at IC50, 3 days; mock 3.3%
Procedure: as §1, §2, §3

NC(=O)NO [HU, hydroxyurea]
γ globin proportion of total β-like globin mRNA (γ globin): 11.2 ± 1.1% | expression level of NF-E4 (NF-E4): 0.6 folds | ε globin proportion of total β-like globin mRNA (ε globin): 0.1 ± 0.0% | β globin proportion of total β-like globin mRNA (β globin): 84.2 ± 1.3% | phosphorylation level of p38 (p38): significantly increased | δ globin proportion of total β-like globin mRNA (δ globin): 4.5 ± 0.2%

CCCC(=O)[O-].[Na+] [NaB, sodium butyrate]
γ globin proportion of total β-like globin mRNA (γ globin): 10.8 ± 1.0% | expression level of NF-E4 (NF-E4): 0.6 folds | ε globin proportion of total β-like globin mRNA (ε globin): 0.1 ± 0.0% | β globin proportion of total β-like globin mRNA (β globin): 87.4 ± 1.0% | phosphorylation level of p38 (p38): significantly increased | δ globin proportion of total β-like globin mRNA (δ globin): 1.8 ± 0.1%
